Common to all, as to assay type: cell-based, human
The subject of assay [1] is peripheral blood-derived, immunobeads-purified CD56+ cells. The assay is described as follows: Assay of CD62L expression on NK cell surface, purified peripheral blood CD56+ cells. As to conditions: 2.5-7.5 mM nicotinamide, 3 weeks in culture. As for the experimental part:
Cultures were initiated with peripheral-blood-derived CD56+ cells purified with immunomagnetic beads and activated with cytokines (including IL-2 and IL-15) with or without nicotinamide (2.5, 5 and 7.5 mM). NK cells were stained with specific antibodies for the specified surface markers (e.g., CD62L) before activation in culture and after 3 weeks incubation with nicotinamide, and then monitored by FACS.

In assay [2] the test system is T-cell depleted (CD3 or CD3/CD19 depleted) peripheral blood NK cell populations. The assay is described as follows: CD62L expression on T-cell depleted peripheral blood NK cell cultures (FACS). As to conditions: 2.5 and 5.0 mM nicotinamide, after 7, 14 and 21 days in culture. As for the experimental part:
For depletion procedure, total nuclear cells from umbilical cord blood (CB), bone marrow (BM) or peripheral blood (PB) cells were layered on a Ficoll-Hypaque gradient (1.077 g/mL; Sigma), and centrifuged at 800×g for 30 minutes for separation of the mononuclear cells. The cells in the interface layer were collected and washed three times in phosphate-buffered saline (PBS) (Biological Industries, Israel) containing 0.5% HSA. Optionally, cells are not separated on the Ficoll-Hypaque gradient but washed three times in phosphate-buffered saline (PBS) (Biological Industries) containing 0.5% HSA (“total mononuclear fraction”). […] After negative depletion the cells were counted and characterized by FACS analysis.
(§1) 3. […] To estimate number of cells in culture, cell samples were counted following staining with trypan blue. […]
The cells were washed with a PBS solution containing 1% BSA, and stained (at 4° C. for 30 min) with fluorescein isothiocyanate (FITC)- or phycoerythrin (PE)-conjugated antibodies or allophycocyanin (APC). The cells were then washed in the above buffer and analyzed using a FACScalibur® flow cytometer (Becton Dickinson, San Jose, Calif., USA). […] Emission of 10^4 cells was measured using logarithmic amplification, and analyzed using the CellQuest software (Becton Dickinson). […]

For assay [3], the system named is peripheral blood CD56+ NK cells. The assay is described as follows: Proliferation of peripheral blood CD56+ NK cells co-cultured with irradiated feeder cells. As to conditions: 2.5 mM and 5 mM nicotinamide, day 21, irradiated feeder cells 10:1. An excerpt: NK cell cells from total mononuclear cell fraction, purified CD56+ or CD56+CD3− cells from total nuclear or mononuclear cells or from the fraction depleted from CD34+ or CD133+ cells, or CD3+ depleted, or CD3+/CD19+ depleted mononuclear cell fraction from PB, BM and CB can be cultured with irradiated stroma. For the preparation of irradiated stroma (feeder cells), mononuclear cells were irradiated with 3000 rad. After CD56 or CD56+CD3− selection or CD3 depletion the cells were counted and characterized by FACS analysis as described hereinabove. Cells were cultured as described hereinabove, with and without nicotinamide, with and without irradiated stroma at a concentration of irradiated cells of 20×10^5 cells/ml.
To determine total number of cells on day 7, 14 and 21, the cell count/ml was multiplied by the volume of the culture medium. In order to determine the number of NK cells in culture, the total number of cells in culture was multiplied by the percent of CD56+/CD3− cells measured with the FACS on days 7, 14 or 21. To measure fold expansion, total number of NK cells on days 7, 14 and 21 was divided by total number of NK cells seeded in culture on day-0.
Peripheral blood-derived mononuclear cell fractions were CD3 depleted and then selected for CD56+ cells by immunobead purification. […]

In assay [4] the test system is monocyte (CD14+) and granulocyte (CD15+) cells. The assay is described as follows: Contaminating monocytes and granulocytes in NK cell cultures (FACS). The conditions noted are these: 14 days culture. As for the experimental part:
For depletion procedure, total nuclear cells from umbilical cord blood (CB), bone marrow (BM) or peripheral blood (PB) cells were layered on a Ficoll-Hypaque gradient (1.077 g/mL; Sigma), and centrifuged at 800×g for 30 minutes for separation of the mononuclear cells. The cells in the interface layer were collected and washed three times in phosphate-buffered saline (PBS) (Biological Industries, Israel) containing 0.5% HSA. Optionally, cells are not separated on the Ficoll-Hypaque gradient but washed three times in phosphate-buffered saline (PBS) (Biological Industries) containing 0.5% HSA (“total mononuclear fraction”). CD3 cells were depleted using the CD3 cell isolation kit (Miltenyi Biotec Bergisch, Gladbach, Germany) and the entire CD3 negative cell fraction was cultured. […] After negative depletion the cells were counted and characterized by FACS analysis.
as §1
Methods for expansion of NK cells in culture, for use in the clinical setting, must be somewhat specific for the NK cell population, lest contaminating non-NK cells also proliferate due to cell culture conditions. The effect of nicotinamide on non-NK cells was evaluated by monitoring monocyte and granulocyte populations in NK cell cultures exposed to 2.5, 5 and 7.5 mM nicotinamide.

These results are taken from US20130011376A1, “Methods for Enhancing Natural Killer Cell Proliferation and Activity” (GAMIDA CELL LTD., priority 2009, published 2013).

Molecules are shown by their SMILES.

Take `NC(=O)c1cccnc1` [nicotinamide]: in assay [1], the “expression of CD62L following activation in culture with IL-2” value is listed as “remarkable increase”. In addition, the “CD62L-positive cells among the NK cells” value in assay [2] is given as “increased percentage”. The “fold increase of NK cells relative to control (cytokines+irradiated mononuclear cells)” value in assay [3] was “at least 4 times”. Also, in assay [4], the “suppression of CD14 proliferation” value is “greater than 50%” and the “suppression of granulocyte proliferation” value is listed as “greater than 50%”.
